Results as given in US10927123B2, “Modulators of the beta-3 adrenergic receptor useful for the treatment or prevention of disorders related thereto” (Arena Pharmaceuticals, Inc., priority 2016, dated 2021).

Target: Beta-3 Adrenergic Receptor (Homo sapiens (Human), UniProt P13945)
Assay: HTRF cAMP antagonist assay (IC50 determination)
Type: cell-based
Details: CHO-K1 cells stably expressing recombinant receptor; antagonism of isoproterenol at EC90; cAMP readout
Procedure, shortened: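 CHO-K1 cells stably expressing the recombinant receptor were preincubated with compound (10-point, 5-fold dilutions; top final typically 10 or 100 μM) in PBS with 1 mM IBMX, then stimulated with isoproterenol at its EC90 for 1 h at room temperature. cAMP was read by HTRF against an on-plate standard curve.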

Beta-3 Adrenergic Receptor, sequence (P13945 whole entry, species assumed): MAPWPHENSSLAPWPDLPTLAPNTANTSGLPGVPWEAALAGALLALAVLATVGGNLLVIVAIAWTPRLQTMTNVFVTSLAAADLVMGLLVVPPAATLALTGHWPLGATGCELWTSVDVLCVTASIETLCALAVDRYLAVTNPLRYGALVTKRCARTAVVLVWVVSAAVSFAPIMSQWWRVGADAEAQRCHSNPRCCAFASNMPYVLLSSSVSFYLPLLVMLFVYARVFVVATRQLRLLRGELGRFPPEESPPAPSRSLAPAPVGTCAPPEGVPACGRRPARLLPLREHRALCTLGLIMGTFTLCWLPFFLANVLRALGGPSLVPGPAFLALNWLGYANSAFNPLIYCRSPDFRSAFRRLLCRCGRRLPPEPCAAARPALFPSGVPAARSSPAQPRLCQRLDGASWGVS

First: CCNCc1ccc(-c2cccc(S(=O)(=O)N3CCC4(CC3)CC(NC[C@H](O)COc3cccc(S(C)(=O)=O)c3)CO4)c2)cc1 (stereo partly drawn) [Compound 79, (2S)-1-(8-(4′-((ethylamino)methyl)biphenyl-3-ylsulfonyl)-1-oxa-8-azaspiro[4.5]decan-3-ylamino)-3-(3-(methylsulfonyl)phenoxy)propan-2-ol]
Second: CC(C)CNCc1ccc(-c2cccc(S(=O)(=O)N3CCC4(CC3)CC(NC[C@H](O)COc3cccc(S(C)(=O)=O)c3)CO4)c2)cc1 (stereo partly drawn) [Compound 81, (2S)-1-(8-(4′-((isobutylamino)methyl)biphenyl-3-ylsulfonyl)-1-oxa-8-azaspiro[4.5]decan-3-ylamino)-3-(3-(methylsulfonyl)phenoxy)propan-2-ol]
The IC50 of the first is 1.5-fold higher: 42.2 nM for the first, 27.8 nM for the second. The second is the more potent here.

`CC(C)NCc1ccc(-c2cccc(S(=O)(=O)N3CCC4(CC3)CC(NC[C@H](O)COc3cccc(S(C)(=O)=O)c3)CO4)c2)cc1` (stereo partly drawn) [Compound 80, (2S)-1-(8-(4′-((isopropylamino)methyl)biphenyl-3-ylsulfonyl)-1-oxa-8-azaspiro[4.5]decan-3-ylamino)-3-(3-(methylsulfonyl)phenoxy)propan-2-ol] and `CS(=O)(=O)c1cccc(OC[C@@H](O)CNC2COC3(CCN(S(=O)(=O)c4cccc(-c5ccc(CNCC(F)(F)F)cc5)c4)CC3)C2)c1` (stereo partly drawn) [Compound 82, (2S)-1-(3-(methylsulfonyl)phenoxy)-3-(8-(4′-((2,2,2-trifluoroethylamino)methyl)biphenyl-3-ylsulfonyl)-1-oxa-8-azaspiro[4.5]decan-3-ylamino)propan-2-ol] are within 1.5-fold of each other in IC50: 38.1 nM for the first, 43.2 nM for the second.

`O=S(=O)(CCO)c1cccc(OC[C@@H](O)CN[C@H]2COC3(CCN(S(=O)(=O)c4ccc5c(c4)CCCO5)CC3)C2)c1` [Compound 83, (S)-1-((R)-8-(chroman-6-ylsulfonyl)-1-oxa-8-azaspiro[4.5]decan-3-ylamino)-3-(3-(2-hydroxyethylsulfonyl)phenoxy)propan-2-ol] and `O=S(=O)(CCO)c1cccc(OC[C@@H](O)CN[C@H]2COC3(CCN(S(=O)(=O)c4ccc5c(c4)OCCC5)CC3)C2)c1` [Compound 87, (S)-1-((R)-8-(chroman-7-ylsulfonyl)-1-oxa-8-azaspiro[4.5]decan-3-ylamino)-3-(3-(2-hydroxyethylsulfonyl)phenoxy)propan-2-ol] are within 1.5-fold of each other in IC50: 53.5 nM for the first, 41.1 nM for the second.

`CN1CCOc2ccc(S(=O)(=O)N3CCC4(CC3)C[C@@H](NC[C@H](O)COc3cccc(S(=O)(=O)CCO)c3)CO4)cc21` [Compound 84, (S)-1-(3-(2-hydroxyethylsulfonyl)phenoxy)-3-((R)-8-(4-methyl-3,4-dihydro-2H-benzo[6][1,4]oxazin-6-ylsulfonyl)-1-oxa-8-azaspiro[4.5]decan-3-ylamino)propan-2-ol] and `O=S(=O)(CCO)c1cccc(OC[C@@H](O)CN[C@H]2COC3(CCN(S(=O)(=O)c4ccc5ncccc5c4)CC3)C2)c1` [Compound 93, (S)-1-(3-(2-hydroxyethylsulfonyl)phenoxy)-3-((R)-8-(quinolin-6-ylsulfonyl)-1-oxa-8-azaspiro[4.5]decan-3-ylamino)propan-2-ol] are within 1.5-fold of each other in IC50: 54.7 nM for the first, 75 nM for the second.

First: CS(=O)(=O)c1cccc(OC[C@@H](O)CN[C@@H]2COC3(CCN(S(=O)(=O)c4cnc5ccccc5c4)CC3)C2)c1 [Compound 85, (S)-1-(3-(methylsulfonyl)phenoxy)-3-((S)-8-(quinolin-3-ylsulfonyl)-1-oxa-8-azaspiro[4.5]decan-3-ylamino)propan-2-ol]
Second: C=CS(=O)(=O)c1cccc(OC[C@@H](O)CN[C@H]2COC3(CCN(S(=O)(=O)c4cnc5ccccc5c4)CC3)C2)c1 [Compound 92, (S)-1-((R)-8-(quinolin-3-ylsulfonyl)-1-oxa-8-azaspiro[4.5]decan-3-ylamino)-3-(3-(vinylsulfonyl)phenoxy)propan-2-ol]
The IC50 of the first is 1.5-fold lower: 17.8 nM for the first, 26.9 nM for the second.

Compared with `O=S(=O)(CF)c1cccc(OC[C@@H](O)CNC2COC3(CCN(S(=O)(=O)c4ccc5ccccc5c4)CC3)C2)c1` (stereo partly drawn) [Compound 86, (2S)-1-(3-(fluoromethylsulfonyl)phenoxy)-3-(8-(naphthalen-2-ylsulfonyl)-1-oxa-8-azaspiro[4.5]decan-3-ylamino)propan-2-ol], `CS(=O)(=O)Cc1cccc(OC[C@H](O)CNC2COC3(CCN(S(=O)(=O)c4ccc5ccccc5c4)CC3)C2)c1` (stereo partly drawn) [Compound 94, (2R)-1-(3-(methylsulfonylmethyl)phenoxy)-3-(8-(naphthalen-2-ylsulfonyl)-1-oxa-8-azaspiro[4.5]decan-3-ylamino)propan-2-ol] is 12-fold higher in IC50: 9.1 nM for the first, 113 nM for the second. The first is the more potent here.

Going from `NCc1ccc(-c2cncc(S(=O)(=O)N3CCC4(CC3)C[C@@H](NC[C@H](O)COc3cccc(S(=O)(=O)CCO)c3)CO4)c2)cc1` [Compound 89, (S)-1-((R)-8-(5-(4-(aminomethyl)phenyl)pyridin-3-ylsulfonyl)-1-oxa-8-azaspiro[4.5]decan-3-ylamino)-3-(3-(2-hydroxyethylsulfonyl)phenoxy)propan-2-ol] to `NCc1ccc(-c2cccc(S(=O)(=O)N3CCC4(CC3)C[C@@H](NC[C@H](O)COc3cccc(S(=O)(=O)CCO)c3)CO4)c2)cc1` [Compound 91, (S)-1-((R)-8-(4′-(aminomethyl)biphenyl-3-ylsulfonyl)-1-oxa-8-azaspiro[4.5]decan-3-ylamino)-3-(3-(2-hydroxyethylsulfonyl)phenoxy)propan-2-ol], the IC50 falls from 110 nM to 37.1 nM (3-fold).

Compared with `Cn1cc(-c2cncc(S(=O)(=O)N3CCC4(CC3)C[C@@H](NC[C@H](O)COc3cccc(S(=O)(=O)CCO)c3)CO4)c2)cn1` [Compound 90, (S)-1-(3-(2-hydroxyethylsulfonyl)phenoxy)-3-((R)-8-(5-(1-methyl-1H-pyrazol-4-yl)pyridin-3-ylsulfonyl)-1-oxa-8-azaspiro[4.5]decan-3-ylamino)propan-2-ol], `O=S(=O)(CCO)c1cccc(OC[C@@H](O)CN[C@H]2COC3(CCN(S(=O)(=O)c4cccc(-c5cccnc5)c4)CC3)C2)c1` [Compound 97, (S)-1-(3-(2-hydroxyethylsulfonyl)phenoxy)-3-((R)-8-(3-(pyridin-3-yl)phenylsulfonyl)-1-oxa-8-azaspiro[4.5]decan-3-ylamino)propan-2-ol] is 1.7-fold lower in IC50: 354 nM for the first, 212 nM for the second.

Compared with `CS(=O)(=O)Cc1cccc(OC[C@@H](O)CN[C@H]2COC3(CCN(S(=O)(=O)c4cnc5ccccc5c4)CC3)C2)c1` [Compound 95, (S)-1-(3-(methylsulfonylmethyl)phenoxy)-3-((R)-8-(quinolin-3-ylsulfonyl)-1-oxa-8-azaspiro[4.5]decan-3-ylamino)propan-2-ol], `CN1CCOc2ncc(S(=O)(=O)N3CCC4(CC3)C[C@@H](NC[C@H](O)COc3cccc(CS(C)(=O)=O)c3)CO4)cc21` [Compound 104, (S)-1-((R)-8-(1-methyl-2,3-dihydro-1H-pyrido[2,3-b][1,4]oxazin-7-ylsulfonyl)-1-oxa-8-azaspiro[4.5]decan-3-ylamino)-3-(3-(methylsulfonylmethyl)phenoxy)propan-2-ol] is 1.7-fold higher in IC50: 21.1 nM for the first, 36.5 nM for the second.

`O=S(=O)(CCO)c1cccc(OC[C@@H](O)CN[C@H]2COC3(CCN(S(=O)(=O)c4cccc(-c5ccncc5)c4)CC3)C2)c1` [Compound 96, (S)-1-(3-(2-hydroxyethylsulfonyl)phenoxy)-3-((R)-8-(3-(pyridin-4-yl)phenylsulfonyl)-1-oxa-8-azaspiro[4.5]decan-3-ylamino)propan-2-ol] and `O=S(=O)(CCO)c1cccc(OC[C@@H](O)CN[C@H]2COC3(CCN(S(=O)(=O)c4ccc(-c5ccncc5)cc4)CC3)C2)c1` [Compound 101, (S)-1-(3-(2-hydroxyethylsulfonyl)phenoxy)-3-((R)-8-(4-(pyridin-4-yl)phenylsulfonyl)-1-oxa-8-azaspiro[4.5]decan-3-ylamino)propan-2-ol] are within 1.5-fold of each other in IC50: 411 nM for the first, 466 nM for the second.

`O=S(=O)(CCO)c1cccc(OC[C@@H](O)CN[C@H]2COC3(CCN(S(=O)(=O)c4ccc5cccnc5c4)CC3)C2)c1` [Compound 98, (S)-1-(3-(2-hydroxyethylsulfonyl)phenoxy)-3-((R)-8-(quinolin-7-ylsulfonyl)-1-oxa-8-azaspiro[4.5]decan-3-ylamino)propan-2-ol] and `O=S(=O)(CCO)c1cccc(OC[C@@H](O)CN[C@H]2COC3(CCN(S(=O)(=O)c4cccc(-c5ccccn5)c4)CC3)C2)c1` [Compound 100, (S)-1-(3-(2-hydroxyethylsulfonyl)phenoxy)-3-((R)-8-(3-(pyridin-2-yl)phenylsulfonyl)-1-oxa-8-azaspiro[4.5]decan-3-ylamino)propan-2-ol] are within 1.5-fold of each other in IC50: 89 nM for the first, 92.2 nM for the second.

First: O=S(=O)(CCO)c1cccc(OC[C@@H](O)CN[C@H]2COC3(CCN(S(=O)(=O)c4ccc(-c5cccnc5)cc4)CC3)C2)c1 [Compound 99, (S)-1-(3-(2-hydroxyethylsulfonyl)phenoxy)-3-((R)-8-(4-(pyridin-3-yl)phenylsulfonyl)-1-oxa-8-azaspiro[4.5]decan-3-ylamino)propan-2-ol]
Second: O=S(=O)(CCO)c1cccc(OC[C@@H](O)CN[C@H]2COC3(CCN(S(=O)(=O)c4ccc(-c5ccccn5)cc4)CC3)C2)c1 [Compound 102, (S)-1-(3-(2-hydroxyethylsulfonyl)phenoxy)-3-((R)-8-(4-(pyridin-2-yl)phenylsulfonyl)-1-oxa-8-azaspiro[4.5]decan-3-ylamino)propan-2-ol]
The IC50 of the first is 2.5-fold higher: 287 nM for the first, 114 nM for the second.

Compared with `NCc1ccc(-c2ccc(S(=O)(=O)N3CCC4(CC3)C[C@@H](NC[C@H](O)COc3cccc(S(=O)(=O)CCO)c3)CO4)cc2)cc1` [Compound 103, (S)-1-((R)-8-(4′-(aminomethyl)biphenyl-4-ylsulfonyl)-1-oxa-8-azaspiro[4.5]decan-3-ylamino)-3-(3-(2-hydroxyethylsulfonyl)phenoxy)propan-2-ol], `O=S(=O)(CCO)c1cccc(OC[C@@H](O)CN[C@H]2COC3(CCN(S(=O)(=O)c4cccc5cnccc45)CC3)C2)c1` [Compound 105, (S)-1-(3-(2-hydroxyethylsulfonyl)phenoxy)-3-((R)-8-(isoquinolin-5-ylsulfonyl)-1-oxa-8-azaspiro[4.5]decan-3-ylamino)propan-2-ol] is 4.3-fold lower in IC50: 1200 nM for the first, 277 nM for the second. The second is the more potent here.
